The values that follow come from patent US5286729A, “Angiotensin II receptor blocking 2,3,6 substituted quinazolinones” (American Cyanamid Company, priority 1993, dated 1994).

This assay has as its target T1, Angiotensin II Receptor (Bos taurus, UniProt P25104).
T1 construct: The brownish tissue forming the adrenal cortex is scraped off and finely minced with scissors before homogenization; from tissue; host or cells: beef adrenal cortex, microsomal (100,000 x g) membranes; adrenals from a local slaughter house (Maxwell-Cohen)
T1 sequence (P25104 1-359): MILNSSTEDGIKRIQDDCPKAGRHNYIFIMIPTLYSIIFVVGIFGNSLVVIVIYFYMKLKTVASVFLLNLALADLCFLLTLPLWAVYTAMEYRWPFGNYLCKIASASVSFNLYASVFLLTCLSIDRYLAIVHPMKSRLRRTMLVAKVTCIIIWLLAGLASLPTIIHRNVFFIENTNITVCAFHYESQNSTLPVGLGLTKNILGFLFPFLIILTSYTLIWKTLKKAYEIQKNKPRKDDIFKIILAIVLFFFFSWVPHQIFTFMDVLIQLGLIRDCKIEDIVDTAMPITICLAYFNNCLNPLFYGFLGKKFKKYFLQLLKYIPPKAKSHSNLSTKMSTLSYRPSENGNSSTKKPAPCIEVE
As to the kind of experiment: Receptor Binding Assay, binding of [125I](Sar1,Ile8)AngII to beef adrenal cortex membranes. To be noted: beef adrenal membranes; [125I](Sar1,Ile8)AngII; 60 min, room temperature, pH 7.4. The source says:
Beef adrenals are obtained from a local slaughter house (Maxwell-Cohen). [^125 I](Sar^1,Ile^8)AngII, S.A. 2200 Ci/mmole, is purchased from Dupont (NEN®, Boston, Mass.).
Approximately sixteen (16) to twenty (20) beef adrenal glands are processed as follows: fresh adrenal glands received on crushed ice are cleaned of fatty tissues and the tough membranes encapsulating the glands are removed and discarded. The brownish tissue forming the adrenal cortex is scraped off and finely minced with scissors before homogenization. Care is taken to avoid contamination with medullary tissue during dissection. The scraped cortices are suspended in twenty volumes of an ice-cold buffer medium consisting of 10 mM Tris.HCl (pH 7.4 at 22° C.) and containing 1.0 mM EDTA and 0.2M sucrose. Unless otherwise indicated, all subsequent operations are done at 4° C. […] The homogenate is centrifuged first at low speed (3,000×g) for 10 min. […] The pelleted membrane is reconstituted in 50.0 mM Tris.HCl buffer containing 0.1 mM of phenylmethylsulfonyl fluoride (PMSF) to give approximately a protein concentration of 2.5 mg per ml of tissue suspension. The membrane preparation is finally aliquoted in 1.0 ml volumes and stored at -70° C. until use in the binding assays. […]

Structures are written as SMILES.

Usually IC50 stands for the concentration that gives 50% inhibition. A higher IC50 goes with lower potency. As to `CCCCc1nc2ccc(COc3ccccn3)cc2c(=O)n1Cc1ccc(-c2ccccc2-c2nnn[nH]2)cc1.Cl` [Example 12, 2-Butyl-6-[(2-pyridinyloxy)methyl]-3-[[2'-(1H-tetrazol-5-yl)[1,1'-biphenyl]-4-yl]methyl]-4(3H)-quinazolinone monohydrochloride], the half-maximal inhibitory concentration (IC50) was 130 nM. That is a sub-micromolar value.
